The test system of the series is U87MG transplanted tumor. Description: U87MG transplanted tumor growth in nude mice. On the set-up: species or system BALB/c nude mice. As to conditions: U87MG xenograft, day 13; saRNA (in vivo-jetPEI) 1 mg/kg intratumor days 1, 4, 7, 10; regorafenib 3 mg/kg intragastric daily day 1-12; control 406%. The procedure: To prepare the saRNA formulation, in vivo-jetPEI (201-10G, Polyplus-transfection, France) was adopted as an saRNA delivery system. The preparation process is briefly described as follows: an saRNA was first diluted in a 10% glucose solution to give a solution A; a required amount of in vivo-jetPEI was diluted in 10% glucose solution to give a solution B; then, equal volumes of the solution A and the solution B were mixed (nitrogen-to-phosphorus ratio: 8; final concentration of glucose: 5%). After mixing the mixture was let to stand under room temperature for 15 minutes for later use.
The glioma cell line U87MG were grown to the logarithmic phase, counted, then subcutaneously inoculated at a concentration of 9×10^7 cells/mL into the right armpit of BALB/c nude mice at 0.1 mL per mouse. […] After the initial administration, the long diameter and short diameter of each tumor were measured with a vernier caliper every two days. The tumor volume was calculated according to the formula V=(l×w^2)/2, wherein 1 represents the longest diameter of the tumor and w represents the diameter parallel to the surface of the tumor and perpendicular to the long diameter. A tumor growth curve and size and morphology of the tumor anatomy were recorded during the administration.

d = 2'-deoxy (DNA); r = 2'-OH (RNA)

Regarding “RAG7-133: saRNA duplex; sense GCUCUUUGUCCGCUGAUCUTT (SEQ ID NO: 1), antisense AGAUCAGCGGACAAAGAGCTT (SEQ ID NO: 165) (sugars from the 5' end r19 d2, backbone not given here)”, the “tumor volume increase compared with that at the beginning of treatment” value came out at 167%.
